Assay results published in patent US20070270462A1, “8-hydroxyquinoline compounds for treating a polyglutamine (polyQ)-expansion disease” (priority 2005, published 2007).

Assays:
[1] = test system: R6/2 mice; test: Fasting blood glucose in R6/2 mice; format: in vivo, mouse; conditions: 11-week old R6/2 mice after 8 weeks of CQ treatment, mean ± s.e.m.
Description: A colony of transgenic mice strain R6/2 that is heterozygous for htt exon1 (containing 145 CAG repeats) was maintained, with founders originating and available from The Jackson Laboratory (Bar Harbor, Me., USA). Male transgenic R6/2 mice were bred with background strain (B6CBAFI/J) females. Genotyping was done according to Hockly et al, Brain Res Bull 61, 469-479, 2003. CQ in water was orally administered to mice at 30 mg/kg/day starting at 3 weeks of age and continued until the mice were deceased or sacrificed for tissues. Littermate R6/2 mice were gavaged with water vehicle alone. At the end of CQ treatment mice were anesthetized and transcardially perfused with PBS followed by 4% v/v paraformaldehyde. Blood glucose levels were determined after at least 8 hrs of fasting in 11-week old mice (n=6 for wild-type, n=4 for vehicle-treated R6/2, n=6 for CQ-treated R6/2 littermates) using a 2300 STAT Plus glucose analyzer (YSI, Yellowsonte, Ohio, USA). Fasting blood insulin levels in animals fasted for 8 hrs were measured using an Ultra Sensitive Rat Insulin ELISA Kit (Crystal Chem, Inc., Downers Grove, Ill., USA) according to manufacturer's instructions.
Consistent with the blood glucose level was a reciprocal change in blood insulin levels.
Data are mean+s.e.m. n≧4 for each treatment group. *P<0.0004 for glucose, **P=0.0065 for insulin levels comparing vehicle and CQ-treated groups.

[2] = test system: Htt exon1-Q103-egfp transfected PC12 cells; test: cells; format: cell-based
Description: (§1) PolyQ-htt-GFP fusion constructs, in which the polyglutamine region is encoded by CAA and CAG-containing tandem repeats ([…]) [SEQ ID NO: 1], human polyglutaminen, were obtained from the Hereditary Disease Foundation, Santa Monica, Calif., USA. PC12 and HEK293 cells were maintained in MEM supplemented with 10% v/v FBS, switched to Opti-MEM without serum for 6 hrs during transfection using Lipofectamine 2000 (Invitrogen, Carlsbad, Calif., USA), and returned to serum-containing medium thereafter (up to 48 hours). […] Control cultures received equivalent amounts of DMSO-containing vehicle (<0.1% w/v DMSO, final concentration).
Plasma membrane integrity was evaluated using propidium iodide at 20 μg/ml final concentration. Approximately 200 cells transfected with the Htt^exon1-Q103-egf plasmid were counted for each treatment group 48 hr after transfection. Cells were at that time as expanded protein accumulation had reached a plateau, and 90% of cell death occurred by this time point. The experiment was repeated twice and counts were averaged. Counts of transfected cells were averaged from three independent, randomly-selected fields. ImageJ 1.32j (National Institutes of Health, USA), was used to measure the size of the lateral ventricles (n≧6 for each group). […]

[3] = test system: Htt exon1-Q103-egfp; test: Pulse-chase assay of Htt exon1-Q103-egfp turnover; format: cell-based; conditions: HEK293 cells, 4 μM CQ
Description: HEK293 cells at 90% confluence on 100 mm plates coated with poly-D-lysine (0.1 μg/μl) were transfected for 4 hr in Opti-MEM medium before replacement of the medium with MEM supplemented with 10% v/v FBS. After another 5 hr incubation, cells were trypsinized and replated in two wells of a 6-well plate, then incubated for another 14 hr at 37° C. The medium was replaced with methionine-free MEM medium supplemented with 5% v/v FBS, and cells incubated for 1.5 hr with 4 μM of CQ or DMSO vehicle added during the last 30 min of incubation. One mCi of Smethionine (Amersham Biosciences, Piscataway, N.J.) in 12 ml of methionine-free MEM was prepared as a pulse stock medium. Cells were pulsed for 10 min by replacing the medium with 1 ml of the pulse stock medium. At different time points, cells were washed twice with ice-cold PBS and lysed in 1 ml of IP lysis buffer (50 mM Tris-HCl, pH 7.5, 150 mM NaCl, 1% v/v NP-40, 0.5% v/v sodium deoxycholate, 1 tab mini-complete protease inhibitor/10 ml buffer). Cells were harvested by scraping, placed in 1.5 ml microcentrifuge tube, and lysed with constant agitation at 4° C. for at least 30 min before immunoprecipitation of the Htt^exon1-Q103-egfp protein using anti-polyglutamine antibody and protein G agarose beads (Roche, Indianapolis, Ind., USA). Assays were performed at least three times. […]

[4] = test system: egfp-alone; test: Fluorescence microscopy of transfected PC12 cells expressing egfp alone; format: cell-based; conditions: CQ 4 μM, 48 hours post-transfection
Description: as §1
Concordant with this reduction in mutant protein expression, cell survival was improved by CQ in a dose dependent fashion with a half maximal effect at 1-2 μM (FIG. 2b). Cell death began to increase at 8 μM, likely due to dose-dependent toxic effects of CQ.

[5] = test system: Htt exon1-Q103-egfp; test: Western blotting of cell extracts, Htt exon1-Q103-egfp expression; format: cell-based
Description: as §1
HEK293 or PC12 cells were lysed in PBS buffer containing 1% v/v Triton X-100 and protease inhibitor cocktail (Roche, Indianapolis, Ind.), and passed through a 28 gauge needle to ensure the release of Htt inclusions from the nuclei. Whole mouse brains were homogenized in 50 mM Tris-HCl (pH 7.4), 150 mM NaCl, 1% v/v Triton X-100 and complete protease inhibitor cocktail. Brain homogenate was pre-cleared by centrifuging at 7,500 g for 90 s at 4° C. The supernatant was passed through a 28-gauge needle and boiled in SDS sample buffer for 10 min. Fifty μg of total protein was loaded onto 10% w/v SDS gel containing a 4% w/v stacking gel. […]

In the case of Oc1c(I)cc(Cl)c2cccnc12 [CQ, 5-chloro-7-iodo-8-hydroxy-quinoline], the “fasting blood glucose level” value [1] is reported as 4.1 ± 0.3 mM, the EC50 ([2]; Rattus norvegicus, PC-12, Htt exon1-Q103-egfp cells, PI staining, 48 hr after transfection, read-out: cell survival improvement, half maximal effect) is reported as 1000 to 2000 nM and the “CQ concentration at which cell death began to increase (toxic effects of CQ)” value ([2]; rat, 48 h) is reported as 8 µM. The “rates of Q103-egfp degradation in the presence of CQ” value [3] was “No significant differences”, the “fluorescent product of egfp-alone” value [4] was “unaffected” and the “CQ concentration at which dose-dependent inhibition of Htt exon1-Q103-egfp expression begins” value [5] was 0.5 µM. For the same molecule, the “inhibition of Htt exon1-Q103-egfp expression” value ([5]; 2 μM CQ) was 3.2 fold.
